Experimental data published in ChEMBL document CHEMBL1201862, “PubChem BioAssay data set” (2004).
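Cells were grown in 96-well plates and exposed to each compound for 48 hours at five concentrations; endpoints were interpolated linearly between bracketing concentrations, or set to the highest concentration if not reached. At the GI50, growth is halved.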 Calls of active or inactive are those of the source. Cut-off read from the data, not from the text of the source: active = GI50 up to about 1.1 µM and inactive = higher.

Columns and labels:
Assay in all cases: NCI tumour cell line growth inhibition, 48 h
[1] = test system: T47D
[2] = test system: UACC-257
[3] = test system: KM12
[4] = test system: LOX IMVI
[5] = test system: HCT-15
[6] = test system: M14
[7] = test system: OVCAR-5
[8] = test system: MDA-N
[9] = test system: SK-MEL-5
[10] = test system: HOP-62
[11] = test system: OVCAR-8
[12] = test system: EKVX
[13] = test system: ACHN
[14] = test system: SF-268
[15] = test system: NCI/ADR-RES
[16] = test system: SN12C
[17] = test system: SK-MEL-28
[18] = test system: UO-31
[19] = test system: NCI-H460
[20] = test system: HOP-92

Row | SMILES | GI50 [1] | GI50 [2] | GI50 [3] | GI50 [4] | GI50 [5] | GI50 [6] | GI50 [7] | GI50 [8] | GI50 [9] | GI50 [10] | GI50 [11] | GI50 [12] | GI50 [13] | GI50 [14] | GI50 [15] | GI50 [16] | GI50 [17] | GI50 [18] | GI50 [19] | GI50 [20]
1 | COC(=O)[C@@H]1c2cc3c(c(O)c2[C@@H](OC2OC(C)C(OC)C(C)(OC)C2OC)C[C@]1(C)O)C(=O)c1c(O)cc2c(c1C3=O)O[C@H]1O[C@]2(C)[C@H](O)[C@@H](N(C)C)[C@@H]1O (some centres not stated) | 0.0276 µM (active) | 0.0143 µM (active) | 0.0065 µM (active) | 0.00254 µM (active) | 0.247 µM | 0.0317 µM (active) | 0.0815 µM (active) | 0.0471 µM (active) | 0.00849 µM (active) | 0.0359 µM (active) | 0.00508 µM (active) | 0.0266 µM (active) | 0.069 µM (active) | 0.00585 µM (active) | 0.299 µM (active) | < 0.0232 µM (active) | 0.00556 µM (active) | 0.301 µM (active) | 0.00377 µM (active) | 0.00532 µM (active)
2 | COC(=O)[C@]12CC[C@H]3CN(C(=O)OCc4ccccc4)[C@H]([C@H]31)[C@H](c1ccco1)N2 | 42.1 µM (inactive) | 29.9 µM (inactive) | 26.4 µM (inactive) | 53.2 µM (inactive) | 23.9 µM | 38 µM (inactive) | > 100 µM (inactive) | 30.8 µM (inactive) | 17 µM (inactive) | 90.2 µM (inactive) | 33 µM (inactive) | 39.9 µM (inactive) | 43.5 µM (inactive) | 57 µM (inactive) | 18.1 µM (inactive) | 46.2 µM (inactive) | 51.3 µM (inactive) | > 100 µM (inactive) | 45.6 µM (inactive) | 29.4 µM (inactive)
3 | [O-][S+]1SC(=S)C2C=CC=NC21 (configuration not stated) | 18.9 µM (inactive) | 15.4 µM (inactive) | 87.7 µM (inactive) | 14.9 µM (inactive) | 17.3 µM | 15.3 µM (inactive) | 15.3 µM (inactive) | 14.7 µM (inactive) | 18.8 µM (inactive) |  | 25 µM (inactive) | 13.2 µM (inactive) | 18.1 µM (inactive) | 19.5 µM (inactive) | 20.9 µM (inactive) | 14.8 µM (inactive) | > 100 µM (inactive) | 14.7 µM (inactive) | 17.4 µM (inactive) | 15.8 µM (inactive)
4 | NC1CC(=O)c2cscc21 (configuration not stated) | 19.6 µM (inactive) | 93.5 µM (inactive) | 18.4 µM (inactive) | 31.8 µM (inactive) | 25.4 µM | 31.1 µM (inactive) | > 100 µM (inactive) | > 100 µM (inactive) | > 100 µM (inactive) | > 100 µM (inactive) | 31 µM (inactive) | > 100 µM (inactive) |  |  | > 100 µM (inactive) | 27.6 µM (inactive) | 37.3 µM (inactive) | 10.3 µM (inactive) | > 100 µM (inactive) | 23 µM (inactive)
